This is an account of results in patent US20250129031A1, “1,2,3-TRIAZOLE CARBONYL SULFONYLAMIDE COMPOUNDS AND USE THEREOF” (PI INDUSTRIES LTD., priority 2022, published 2025).

Molecules are shown by their SMILES.

This experiment concerns Meloidogyne incognita. Briefly: Meloidogyne incognita test: gall rating on cucumber plants in pots after soil application. To be noted: 1000 ppm applied to soil inoculated with 5000 eggs & J2s; cucumber seedlings; rated 30 days after application; 0-10 scale (Zeck 1971); untreated check up to 8. Also on record: key: 0: no galls; 1: very few small galls; 2: numerous small galls; 3: numerous small galls of which some are grown together; 4: numerous small and some big galls; 25% of roots severely galled; 6: 50% of roots severely galled; 75% of roots severely galled; 8: no healthy roots but plant is still green; 9: roots rotting and plant dying; 10: plant and roots dead. In kind it is in vivo. Here is the method: Meloidogyne incognita Test:
The trial pots were filled with soil containing a mixture of sand:soil:cocopeat in a ratio of 1:1:1. To the soil of each pot 5 mL of a nematode suspension (Meloidogyne incognita, mix of 5000 eggs & J2s) was added. One hour later the respective test compound at the stated concentration was applied to each pot. 10 days old cucumber seedlings were transplanted into the pots one day after the application. The cucumber plants were allowed to grow at a temperature of 27° C. under greenhouse conditions. The evaluation of the gall rating was recorded 30 days after the application. The plants were carefully uprooted and the roots were thoroughly washed. The gall rating was done on a 0-10 scale as described by Zeck (1971) and shown below: • 0=no galls • 1=very few small galls • 2=numerous small galls • 3=numerous small galls of which some are grown together • 4=numerous small and some big galls • 5=25% of roots severely galled • 6=50% of roots severely galled • 7=75% of roots severely galled • 8=no healthy roots but plant is still green • 9=roots rotting and plant dying • 10=plant and roots dead
`Cc1c(Cl)cccc1S(=O)(=O)NC(=O)c1nnn(-c2ccc(C#N)cc2Cl)c1C` [Compound 513] gave a gall rating scale of 4. In turn, `Cc1ccc(F)cc1S(=O)(=O)NC(=O)c1nnn(-c2ccc(C#N)cc2Cl)c1C` [Compound 516, 1-(2-chloro-4-cyanophenyl)-N-((5-fluoro-2-methylphenyl)sulfonyl)-5-methyl-1H-1,2,3-triazole-4-carboxamide] registered a gall rating scale of 4.

`Cc1ccc(C)c(S(=O)(=O)NC(=O)c2nnn(-c3ccc(C#N)cc3F)c2C(F)(F)F)c1` [Compound 536, 1-(4-cyano-2-fluorophenyl)-N-((2,5-dimethylphenyl)sulfonyl)-5-(trifluoromethyl)-1H-1,2,3-triazole-4-carboxamide] showed a gall rating scale of 4. `COc1ccc(Cl)c(S(=O)(=O)NC(=O)c2nnn(-c3ccc(C#N)cc3F)c2C(F)(F)F)c1` [Compound 538, N-((2-chloro-5-methoxyphenyl)sulfonyl)-1-(4-cyano-2-fluorophenyl)-5-(trifluoromethyl)-1H-1,2,3-triazole-4-carboxamide]: the gall rating scale came to 4.

With `N#Cc1ccc(-n2nnc(C(=O)NS(=O)(=O)c3ccccc3Cl)c2C(F)(F)F)c(F)c1` [Compound 563, N-((2-chlorophenyl)sulfonyl)-1-(4-cyano-2-fluorophenyl)-5-(trifluoromethyl)-1H-1,2,3-triazole-4-carboxamide], the gall rating scale was found to be 4.

For `COc1ccc(Cl)cc1S(=O)(=O)NC(=O)c1nnn(-c2ccc(OC(F)(F)F)cc2Cl)c1C` [Compound 586], the gall rating scale turned out to be 4. Molecule `COc1ccc(C)cc1S(=O)(=O)NC(=O)c1nnn(-c2ccc(OC(F)(F)F)cc2Cl)c1C` [Compound 587] returned a gall rating scale of 4. As to `Cc1ccc(F)cc1S(=O)(=O)NC(=O)c1nnn(-c2ccc(OC(F)(F)F)cc2Cl)c1C` [Compound 588], the gall rating scale is recorded as 4. `COc1ccc(C)cc1S(=O)(=O)NC(=O)c1nnn(-c2ccc(OC(F)(F)F)cc2Cl)c1C(F)(F)F` [Compound 590] yielded a gall rating scale of 4. `Cc1c(Cl)cccc1S(=O)(=O)NC(=O)c1nnn(-c2ccc(OC(F)(F)F)cc2Cl)c1C(F)(F)F` [Compound 596, N-((3-chloro-2-methylphenyl)sulfonyl)-1-(2-chloro-4-(trifluoromethoxy)phenyl)-5-(trifluoromethyl)-1H-1,2,3-triazole-4-carboxamide] returned a gall rating scale of 4. In turn, `Cc1ccc(F)cc1S(=O)(=O)NC(=O)c1nnn(-c2ccc(OC(F)(F)F)cc2Cl)c1C(F)(F)F` [Compound 597] registered a gall rating scale of 4. As for `COc1ccc(Cl)cc1S(=O)(=O)NC(=O)c1nnn(-c2ccc(Cl)cc2Cl)c1C(F)(F)F` [Compound 598], the figure is 4; as for `COc1ccc(C)cc1S(=O)(=O)NC(=O)c1nnn(-c2ccc(Cl)cc2Cl)c1C(F)(F)F` [Compound 599], 4; as for `N#Cc1ccc(-n2nnc(C(=O)NS(=O)(=O)c3cc(Cl)c(F)cc3F)c2C(F)(F)F)c(F)c1` [Compound 610, N-((5-chloro-2,4-difluorophenyl)sulfonyl)-1-(4-cyano-2-fluorophenyl)-5-(trifluoromethyl)-1H-1,2,3-triazole-4-carboxamide], 4.

`COc1ccc(Cl)c(S(=O)(=O)NC(=O)c2nnn(-c3ccc(Cl)cc3F)c2C(F)(F)F)c1` [Compound 630] had a gall rating scale of 4. In turn, `O=C(NS(=O)(=O)c1cc(C(F)(F)F)ccc1Cl)c1nnn(-c2ccc(Cl)cc2F)c1C(F)(F)F` [Compound 631] registered a gall rating scale of 4.

`O=C(NS(=O)(=O)c1ccccc1C(F)(F)F)c1nnn(-c2ccc(Cl)cc2F)c1C(F)(F)F` [Compound 640]: the gall rating scale is 4.

Turning to `Cc1c(C(=O)NS(=O)(=O)c2ccccc2C(F)(F)F)nnn1-c1cc(Cl)c(Cl)cc1Cl` [Compound 657], the gall rating scale stood at 4. `COc1ccc(Cl)c(S(=O)(=O)NC(=O)c2nnn(-c3ccc(OC(F)F)cc3Cl)c2C)c1` [Compound 664] returned a gall rating scale of 4. For `Cc1c(C(=O)NS(=O)(=O)c2cc(C(F)(F)F)ccc2Cl)nnn1-c1ccc(OC(F)F)cc1Cl` [Compound 665], the gall rating scale amounted to 4. `Cc1c(C(=O)NS(=O)(=O)c2cc(Cl)ccc2Cl)nnn1-c1ccc(OC(F)F)cc1Cl` [Compound 666] displayed a gall rating scale of 4. With `Cc1ccc(C)c(S(=O)(=O)NC(=O)c2nnn(-c3ccc(OC(F)F)cc3Cl)c2C)c1` [Compound 667], the gall rating scale was found to be 4. Molecule `Cc1c(C(=O)NS(=O)(=O)c2ccccc2F)nnn1-c1ccc(OC(F)F)cc1Cl` [Compound 668] displayed a gall rating scale of 4. As for `Cc1c(C(=O)NS(=O)(=O)c2ccccc2C(F)(F)F)nnn1-c1ccc(OC(F)F)cc1Cl` [Compound 669], the figure is 4. Take `Cc1ccc(C)c(S(=O)(=O)NC(=O)c2nnn(-c3ccc(C(F)(F)F)cc3Cl)c2C)c1` [Compound 670]: the gall rating scale is 4. Molecule `Cc1c(C(=O)NS(=O)(=O)c2ccccc2Cl)nnn1-c1ccc(OC(F)F)cc1Cl` [Compound 671] came in with a gall rating scale of 4. As for `Cc1c(C(=O)NS(=O)(=O)c2ccc(F)cc2F)nnn1-c1ccc(OC(F)F)cc1Cl` [Compound 672], the figure is 4. Take `Cc1c(C(=O)NS(=O)(=O)c2cc(F)cc(F)c2)nnn1-c1ccc(OC(F)F)cc1Cl` [Compound 673]: the gall rating scale worked out at 4. The molecule `Cc1c(C(=O)NS(=O)(=O)c2cc(F)ccc2F)nnn1-c1ccc(OC(F)F)cc1Cl` [Compound 674] came in with a gall rating scale of 4. `Cc1c(C(=O)NS(=O)(=O)c2c(F)cc(F)cc2F)nnn1-c1ccc(OC(F)F)cc1Cl` [Compound 675] showed a gall rating scale of 4. Molecule `Cc1c(C(=O)NS(=O)(=O)c2cc(Cl)c(Cl)cc2Cl)nnn1-c1ccc(OC(F)F)cc1Cl` [Compound 676] registered a gall rating scale of 4. As for `Cc1c(C(=O)NS(=O)(=O)c2ccc(F)cc2F)nnn1-c1cc(Cl)c(Cl)cc1Cl` [Compound 683], the figure is 4. In turn, `Cc1c(C(=O)NS(=O)(=O)c2ccccc2C(F)(F)F)nnn1-c1ccc(F)cc1F` [Compound 687] registered a gall rating scale of 4. `Cc1c(C(=O)NS(=O)(=O)c2ccccc2Cl)nnn1-c1ccc(F)cc1F` [Compound 689] yielded a gall rating scale of 4. The molecule `Cc1c(C(=O)NS(=O)(=O)c2cc(C(F)(F)F)ccc2C(F)(F)F)nnn1-c1ccc(F)cc1F` [Compound 690] had a gall rating scale of 4. Molecule `Cc1c(C(=O)NS(=O)(=O)c2cc(Cl)ccc2F)nnn1-c1ccc(F)cc1F` [Compound 691] displayed a gall rating scale of 4. With `O=C(NS(=O)(=O)c1ccc(Cl)cc1Cl)c1nnn(-c2cc(Cl)c(Cl)cc2Cl)c1C(F)(F)F` [Compound 709], the gall rating scale was 4.

In turn, `O=C(NS(=O)(=O)c1ccccc1C(F)(F)F)c1nnn(-c2ccc(F)cc2F)c1C(F)(F)F` [Compound 736] had a gall rating scale of 4. `O=C(NS(=O)(=O)c1cc(C(F)(F)F)ccc1Cl)c1nnn(-c2ccc(F)cc2F)c1C(F)(F)F` [Compound 774] came in with a gall rating scale of 4. `Cc1ccccc1S(=O)(=O)NC(=O)c1nnn(-c2ccc(F)cc2F)c1C(F)(F)F` [Compound 776] came in with a gall rating scale of 4.
